Results published in patent publication US4585756A, “Bovine GRF” (The Salk Institute for Biological Studies, priority 1983, dated 1986).

Tested on: rat pituitary cells
Experiment: in vitro release of growth hormone (ir GH by radioimmunoassay) from cultured rat pituitary cells, side-by-side with hGRF(1-44)-NH2
Format: cell-based
Method: To determine the effectiveness of the peptide to promote the release of growth hormone, in vitro assays are carried out using synthetic hGRF(1-44)-NH2 in side-by-side comparison with equimolar concentrations of the extracted and purified bGRF(1-44) of Example II. hGRF thus serves as a GRF Reference Standard having a known effectiveness to promote the release of growth hormone from rat pituitary cells. Cultures are used which include cells of rat pituitary glands removed some four to five days previously. Both cultures of a defined standard medium and cultures which are considered optimal for the secretion of growth hormone are used for the comparative testing, in the general manner described in Brazeau, et al. Regulatory Peptides, 1, 255, 1981. Incubation with the substance to be tested is carried out for 3 to 4 hours, and aliquots of the culture medium are removed and processed to measure their contents in immunoreactive GH(ir GH) by a well-characterized radioimmunoassay.

[1] = equimolar ratios, rat pituitary cell cultures, incubation 3 to 4 hours

CC[C@H](C)[C@H](NC(=O)[C@H](C)NC(=O)[C@H](CC(=O)O)NC(=O)[C@H](C)NC(=O)[C@@H](N)Cc1ccc(O)cc1)C(=O)N[C@@H](Cc1ccccc1)C(=O)N[C@H](C(=O)N[C@@H](CC(N)=O)C(=O)N[C@@H](CO)C(=O)N[C@@H](Cc1ccc(O)cc1)C(=O)N[C@@H](CCCNC(=N)N)C(=O)N[C@@H](CCCCN)C(=O)N[C@H](C(=O)N[C@@H](CC(C)C)C(=O)NCC(=O)N[C@@H](CCC(N)=O)C(=O)N[C@@H](CC(C)C)C(=O)N[C@@H](CO)C(=O)N[C@@H](C)C(=O)N[C@@H](CCCNC(=N)N)C(=O)N[C@@H](CCCCN)C(=O)N[C@@H](CC(C)C)C(=O)N[C@@H](CC(C)C)C(=O)N[C@@H](CCC(N)=O)C(=O)N[C@@H](CC(=O)O)C(=O)N[C@H](C(=O)N[C@@H](CCSC)C(=O)N[C@@H](CC(N)=O)C(=O)N[C@@H](CCCNC(=N)N)C(=O)N[C@@H](CCC(N)=O)C(=O)N[C@@H](CCC(N)=O)C(=O)NCC(=O)N[C@@H](CCC(=O)O)C(=O)N[C@@H](CCCNC(=N)N)C(=O)N[C@@H](CC(N)=O)C(=O)N[C@@H](CCC(N)=O)C(=O)N[C@@H](CCC(=O)O)C(=O)N[C@@H](CCC(N)=O)C(=O)NCC(=O)N[C@@H](C)C(=O)N[C@@H](CCCCN)C(=O)N[C@H](C(=O)N[C@@H](CCCNC(=N)N)C(=O)N[C@@H](CC(C)C)C(N)=O)C(C)C)[C@@H](C)CC)C(C)C)[C@@H](C)O [bGRF(1-44)] was tested, and the “intrinsic biological activity (GH release) compared with synthetic hGRF(1-44)-NH2” value [1] was “full intrinsic biological activity”, the “potency (GH release) compared with synthetic hGRF(1-44)-NH2” value [1] was “close to the same potency” and the “intrinsic activity relative to hGRF(1-44)-NH2” value (multiple doses factorial design experiments) was “same intrinsic activity”. For the same compound, the “specific activity relative to hGRF(1-44)-NH2” value (multiple doses factorial design experiments, % of hGRF(1-44)-NH2, confidence limits of 54-93%) was “about 70%”.
